Test results as given in patent US8426447B2, “Spiro-tricyclic ring compounds as beta-secretase modulators and methods of use” (Amgen Inc., priority 2008, dated 2013).

What was measured:
BACE1 [1] = target: T1, BACE1 (Homo sapiens, UniProt P56817); assay: In Vitro BACE Cell-based Assay (HEK cell assay): Aβ40 in conditioned medium of cells stably expressing Amyloid Precursor Protein, sandwich ELISA; conditions: read-out: HEK cell assay
Method in brief: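 Read-out is time-resolved fluorescence of Aβ40 in supernatant, captured by pAb40 and detected with biotinylated 6E10 plus Streptavidin-Europium. Cells stably expressing APP received compounds for 24 h over 10 concentrations starting at 100 μM or 10 μM, final DMSO 0.1%.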

BACE1 [2] = target: T1, BACE1; assay: In Vitro Enzymatic BACE FRET (Fluorescence Resonance Energy Transfer) Assay; format: biochemical; conditions: read-out: BACE1 FRET assay
Method in brief: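 Run in 0.05 M acetate pH 4.2 with 10% DMSO final and 100 uM genapol detergent below its CMC. Reaction was started with 50 nM FRET peptide substrate (fluorophore and quencher flanking the BACE cleavage site), incubated one hour, stopped with Tris to neutral pH, and fluorescence read.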

[3] = HEK cell-based assay, Aβ40 in conditioned medium, IC50 class symbols
[4] = in vitro BACE FRET enzyme assay, IC50 class symbols

T1 sequence (P56817 46-501, species assumed): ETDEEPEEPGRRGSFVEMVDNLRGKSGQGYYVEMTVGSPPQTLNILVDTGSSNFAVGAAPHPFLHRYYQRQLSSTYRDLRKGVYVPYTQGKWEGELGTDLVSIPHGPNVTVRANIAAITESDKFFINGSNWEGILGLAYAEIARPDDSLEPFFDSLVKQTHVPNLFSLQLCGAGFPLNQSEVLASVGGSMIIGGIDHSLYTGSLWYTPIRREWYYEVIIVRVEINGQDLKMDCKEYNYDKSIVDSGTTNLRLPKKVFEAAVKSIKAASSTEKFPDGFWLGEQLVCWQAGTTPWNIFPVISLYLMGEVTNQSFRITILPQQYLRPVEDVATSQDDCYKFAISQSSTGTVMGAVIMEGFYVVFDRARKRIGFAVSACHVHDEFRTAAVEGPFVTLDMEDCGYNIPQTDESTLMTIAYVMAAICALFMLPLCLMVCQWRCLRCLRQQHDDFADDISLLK

Row | IC50 (BACE1 [1]) | IC50 (BACE1 [2]) | IC50 (BACE1 [1]; Table IV, class symbols) | IC50 (BACE1 [2]; Table IV, class symbols) | further results | SMILES
1 | 1 to 5 µM | 1 to 5 µM | – | – | – | COc1ccncc1-c1ccc2c(c1)[C@]1(COC(N)=N1)c1cc(OCC(C)(C)C)ccc1O2 [compound 778]
2 | – | – | – | – | IC50 (BACE1 [1]; Table III, IC50's in uM ranges): 1 to 5 µM; IC50 (BACE1 [2]; Table III, IC50's in uM ranges): 1 to 5 µM | CC(C)(O)COc1ccc2c(c1)[C@]1(COC(N)=N1)c1cc(Br)ccc1O2 [compound 210]
3 | – | – | 1 to 5 µM | 0.1 to 1 µM | – | CC(C)(C)COc1ccc2c(c1)[C@]1(COC(N)=N1)c1cc(-c3cccc4ncccc34)ccc1O2 [compound 916]
4 | – | < 0.1 µM | – | – | IC50 (BACE1 [1]; HEK cells): < 0.1 µM | CC1(C)C=C(c2cc(F)c3c(c2)[C@]2(COC(N)=N2)c2cc(-c4cncnc4)ccc2O3)CCO1 [compound 466]
5 | > 5 µM | > 5 µM | – | – | – | COC(C)(C)C#Cc1cnc2c(c1)[C@@]1(COC(N)=N1)c1cc(-c3ccncc3)ccc1O2 [compound 692]
6 | – | – | – | – | IC50 (BACE1 [1]; [3]): < 0.1 µM; IC50 (BACE1 [2]; [4]): < 0.1 µM | CCOC1CN(c2ccc3c(c2)[C@]2(COC(N)=N2)c2cc(-c4cccnc4)ccc2O3)C1 [compound 415]
7 | – | < 0.1 µM | – | – | IC50 (BACE1 [1]; HEK cells): < 0.1 µM | COC1CCN(c2ccc3c(c2)[C@]2(COC(N)=N2)c2cc(-c4cccnc4)ccc2O3)CC1 [compound 464]
8 | 0.1 to 1 µM | 0.1 to 1 µM | – | – | – | CCOc1ccc(-c2cnc3c(c2)[C@]2(COC(N)=N2)c2cc(OC)ccc2O3)cn1 [compound 667]
9 | – | < 0.1 µM | – | – | IC50 (BACE1 [1]; HEK cells): < 0.1 µM | C[C@@H]1CN(c2cc(F)c3c(c2)[C@]2(COC(N)=N2)c2cc(-c4cccnc4)ccc2O3)C[C@H](C)O1 [compound 483]
10 | < 0.1 µM | < 0.1 µM | – | – | – | COC(C)(C)C#Cc1ccc2c(c1)[C@@]1(COC(N)=N1)c1cc(C#CC(C)(C)OC)cnc1O2 [compound 934]
11 | > 5 µM | > 5 µM | – | – | – | COc1ccc2c(c1)[C@@]1(COC(N)=N1)c1cc(Br)cnc1O2 [compound 680]
12 | 1 to 5 µM | 0.1 to 1 µM | – | – | – | CC(C)(C)COc1ccc2c(c1)[C@]1(COC(N)=N1)c1cc(-c3ccc(=O)[nH]c3)ccc1O2 [compound 980]
13 | – | – | 1 to 5 µM | 0.1 to 1 µM | – | COc1ccc2c(c1)[C@@]1(COC(N)=N1)c1c(ccc(-c3cncnc3)c1F)O2 [compound 899]
14 | – | – | 0.1 to 1 µM | 0.1 to 1 µM | – | COC(=O)/C=C/c1ccc2c(c1)[C@@]1(COC(N)=N1)c1cc(-c3cccnc3)ccc1O2 [compound 918]
15 | – | – | – | – | IC50 (BACE1 [1]; Table 1, Aβ40, 24 h incubation): 0.1 to 1 µM; IC50 (BACE1 [2]; Table 1): 1 to 5 µM | COc1ccc(F)c(-c2ccc3c(c2)C2(COC(N)=N2)c2ccc(C)cc2O3)c1 (centres unmarked) [Example 19, 2′-(2-fluoro-5-methoxyphenyl)-6′-methylspiro[1,3-oxazole-4,9′-xanthen]-2-amine]
16 | – | – | – | – | IC50 (BACE1 [1]; Table 1, Aβ40, 24 h incubation): 1 to 5 µM; IC50 (BACE1 [2]; Table 1): 0.1 to 1 µM | COc1ccc2c(c1)[C@]1(COC(N)=N1)c1cc(-c3cncnc3)ccc1O2 [Example 10, (4S)-2′-methoxy-7′-(5-pyrimidinyl)spiro[1,3-oxazole-4,9′-xanthen]-2-amine]
17 | – | – | – | – | IC50 (BACE1 [1]; Table III, IC50's in uM ranges): 1 to 5 µM; IC50 (BACE1 [2]; Table III, IC50's in uM ranges): 0.1 to 1 µM | NC1=N[C@]2(CO1)c1cc(Br)ccc1Oc1ccc(Oc3ccccn3)cc12 [compound 198, (4S)-2′-bromo-7′-(2-pyridinyloxy)spiro[1,3-oxazole-4,9′-xanthen]-2-amine]
18 | – | – | < 0.1 µM | < 0.1 µM | – | CC(C)(C)COc1ccc2c(c1)[C@@]1(COC(N)=N1)c1cc(-c3ccccc3)cnc1O2 [compound 807]
19 | – | < 0.1 µM | – | – | IC50 (BACE1 [1]; HEK cells): < 0.1 µM | NC1=N[C@]2(CO1)c1cc(C3=CCOCC3)ccc1Oc1cnc(-c3cccnc3F)cc12 [compound 497]
20 | – | – | > 5 µM | > 5 µM | – | CC(C)CCCOc1nccc2c1[C@@]1(COC(N)=N1)c1cc(-c3cccnc3)ccc1O2 [compound 843]
21 | – | – | < 0.1 µM | < 0.1 µM | – | COc1cc(F)c2c(c1)[C@]1(COC(N)=N1)c1cc(-c3cncnc3)ccc1O2 [compound 581]
22 | – | – | – | – | IC50 (BACE1 [1]; [3]): 1 to 5 µM; IC50 (BACE1 [2]; [4]): 0.1 to 1 µM | Cc1cncc(-c2ccc3c(c2)[C@@]2(COC(N)=N2)c2cc(Cl)ncc2O3)c1 [compound 327]

Row | IC50 (BACE1 [1]) | IC50 (BACE1 [2]) | IC50 (BACE1 [1]; Table IV, class symbols) | IC50 (BACE1 [2]; Table IV, class symbols) | further results | SMILES
23 | – | – | < 0.1 µM | < 0.1 µM | – | Cc1ccc(-c2ccc3c(c2)[C@]2(COC(N)=N2)c2cc(-c4cncnc4)ccc2O3)s1 [compound 820]
24 | > 5 µM | 0.1 to 1 µM | – | – | – | CC(C)(C)COc1ccc2c(c1)[C@]1(COC(N)=N1)c1cc(C3CC4CCC3C4)ccc1O2 (some centres unmarked) [compound 700]
25 | – | – | > 5 µM | > 5 µM | – | NC1=N[C@@]2(CO1)c1cc(Br)ccc1Oc1ccc(Cl)nc12 [compound 855]
26 | – | – | – | – | IC50 (BACE1 [1]; Table 1, Aβ40, 24 h incubation): 1 to 5 µM; IC50 (BACE1 [2]; Table 1): > 5 µM | COc1ccc2c(c1)C1(COC(N)=N1)c1cc(-c3ccc(OC(F)(F)F)cc3)ccc1O2 (centres unmarked) [Example 27, 2′-methoxy-7′-(4-(trifluoromethoxy)phenyl)spiro[1,3-oxazole-4,9′-xanthen]-2-amine]
27 | – | – | 0.1 to 1 µM | < 0.1 µM | – | NC1=N[C@@]2(CO1)c1cc(-c3cccnc3F)ccc1Oc1ncccc12 [compound 570]
28 | < 0.1 µM | < 0.1 µM | – | – | – | NC1=N[C@]2(CO1)c1cc(C#CC3(O)COC3)ccc1Oc1ccc(-c3cccnc3)cc12 [compound 685]
29 | > 5 µM | > 5 µM | – | – | – | CC(C)(O)C#Cc1cnc2c(c1)[C@@]1(COC(N)=N1)c1cc(C#CC3CC3)ccc1O2 [compound 705]
30 | – | – | 1 to 5 µM | 1 to 5 µM | – | NC1=N[C@@]2(CO1)c1ccccc1Oc1ccc(-c3cc4ccccc4o3)cc12 [compound 587]
31 | – | – | 0.1 to 1 µM | 0.1 to 1 µM | – | CC(C)(C)COc1ccc2c(c1)[C@]1(COC(N)=N1)c1cc(N3CCCCC3)ccc1O2 [compound 813]
32 | – | – | – | – | IC50 (BACE1 [1]; Table III, IC50's in uM ranges): < 0.1 µM; IC50 (BACE1 [2]; Table III, IC50's in uM ranges): < 0.1 µM | NC1=N[C@]2(CO1)c1cc(-c3cccnc3)ccc1Oc1ccc(-c3cncnc3)cc12 [Example 124, (R)-2′-(pyridin-3-yl)-7′-(pyrimidin-5-yl)-5H-spiro[oxazole-4,9′-xanthen]-2-amine]
33 | 0.1 to 1 µM | < 0.1 µM | – | – | – | CC1(COc2ccc3c(c2)[C@@]2(COC(N)=N2)c2cc(C#CC4CC4)cnc2O3)COC1 [compound 967]
34 | 1 to 5 µM | 1 to 5 µM | – | – | – | NC1=N[C@]2(CO1)c1cc(-c3ccc(F)cc3)ccc1Oc1ncc(C3=CCOCC3)cc12 [compound 691]
35 | – | – | < 0.1 µM | < 0.1 µM | – | COc1ncccc1-c1ccc2c(c1)[C@@]1(COC(N)=N1)c1cc(C#CC(C)(C)OC)cnc1O2 [compound 806]
36 | – | – | – | – | IC50 (BACE1 [1]; Table III, IC50's in uM ranges): 0.1 to 1 µM; IC50 (BACE1 [2]; Table III, IC50's in uM ranges): < 0.1 µM | CC(C)(C)CCc1ccc2c(c1)[C@@]1(COC(N)=N1)c1cc(-c3ccc(F)nc3)ccc1O2 [153a]
37 | – | – | 1 to 5 µM | 1 to 5 µM | – | NC1=NC2(CO1)c1cnccc1Oc1ccc(-c3cccnc3)cc12 (centres unmarked) [compound 648]
38 | – | – | < 0.1 µM | < 0.1 µM | – | CC(C)(C)COc1ccc2c(c1)[C@@]1(COC(N)=N1)c1cc(-c3cccnc3F)cnc1O2 [compound 870]
39 | 0.1 to 1 µM | 0.1 to 1 µM | – | – | – | CC(=O)COc1ccc2c(c1)[C@@]1(COC(N)=N1)c1cc(-c3cccnc3)cnc1O2 [compound 926]
40 | – | – | 0.1 to 1 µM | 0.1 to 1 µM | – | CC(C)(C)COc1ccc2c(c1)[C@]1(COC(N)=N1)c1cc(C(=O)N3CCCCC3)ccc1O2 [compound 873]
41 | > 5 µM | > 5 µM | – | – | – | CC(C)(C)OC(=O)Cc1ccc2c(c1)[C@]1(COC(N)=N1)c1cc(Br)ccc1O2 [compound 707]
42 | – | – | > 5 µM | 1 to 5 µM | – | NC1=N[C@]2(CO1)c1ccccc1Oc1ccc(-c3cc4ccccc4[nH]3)cc12 [compound 567]
43 | 0.1 to 1 µM | < 0.1 µM | – | – | – | CC(C)(C)CC(=O)c1ccc2c(c1)[C@]1(CSC(N)=N1)c1cc(-c3cncnc3)ccc1O2 [compound 761]
